Consider 3 compounds from article PMC7253177, “Gain of channel function and modified gating properties in TRPM3 mutants causing intellectual disability and epilepsy” (eLife, 2020).

For experiment [1], the target named is T1, TRPM3 V990M mutant (Homo sapiens, UniProt Q9HCF6, V1015M).
T1 construct: expressed in transfected cells; host or cells: HEK293T
T1 sequence (Q9HCF6 1-1325 isoform Q9HCF6-10 V990M): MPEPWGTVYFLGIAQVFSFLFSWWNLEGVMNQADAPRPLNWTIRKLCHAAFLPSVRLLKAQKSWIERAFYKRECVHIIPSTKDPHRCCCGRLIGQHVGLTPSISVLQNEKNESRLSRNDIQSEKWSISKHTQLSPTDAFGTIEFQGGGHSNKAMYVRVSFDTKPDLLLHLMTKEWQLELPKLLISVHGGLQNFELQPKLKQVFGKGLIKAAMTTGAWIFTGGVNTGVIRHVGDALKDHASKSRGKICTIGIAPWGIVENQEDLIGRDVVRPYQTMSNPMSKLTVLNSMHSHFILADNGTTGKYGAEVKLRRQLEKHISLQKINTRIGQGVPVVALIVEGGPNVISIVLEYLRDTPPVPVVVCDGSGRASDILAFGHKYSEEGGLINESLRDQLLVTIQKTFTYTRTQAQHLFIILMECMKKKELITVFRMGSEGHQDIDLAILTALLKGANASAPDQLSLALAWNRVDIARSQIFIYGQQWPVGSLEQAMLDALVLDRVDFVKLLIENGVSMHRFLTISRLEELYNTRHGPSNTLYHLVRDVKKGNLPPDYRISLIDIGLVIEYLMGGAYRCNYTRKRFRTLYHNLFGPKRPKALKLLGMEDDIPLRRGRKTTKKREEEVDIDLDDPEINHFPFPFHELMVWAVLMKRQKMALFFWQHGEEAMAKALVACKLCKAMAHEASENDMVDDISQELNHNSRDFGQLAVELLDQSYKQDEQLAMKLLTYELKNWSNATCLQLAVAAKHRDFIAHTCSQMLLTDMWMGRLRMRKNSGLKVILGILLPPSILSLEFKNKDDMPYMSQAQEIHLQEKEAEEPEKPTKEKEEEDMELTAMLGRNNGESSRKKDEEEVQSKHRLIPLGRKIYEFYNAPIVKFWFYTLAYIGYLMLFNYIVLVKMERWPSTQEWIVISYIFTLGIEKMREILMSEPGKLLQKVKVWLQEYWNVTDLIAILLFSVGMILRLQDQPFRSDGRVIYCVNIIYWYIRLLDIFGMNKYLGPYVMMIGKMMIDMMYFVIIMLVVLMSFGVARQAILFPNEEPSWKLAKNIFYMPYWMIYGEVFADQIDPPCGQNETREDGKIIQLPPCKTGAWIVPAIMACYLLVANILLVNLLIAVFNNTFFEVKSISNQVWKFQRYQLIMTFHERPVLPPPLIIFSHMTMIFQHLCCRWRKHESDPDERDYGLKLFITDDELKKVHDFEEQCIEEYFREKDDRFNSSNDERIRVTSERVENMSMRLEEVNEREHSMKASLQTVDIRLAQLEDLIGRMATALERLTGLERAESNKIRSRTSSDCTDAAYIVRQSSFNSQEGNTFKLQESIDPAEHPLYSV
In words: Whole-cell patch clamp, HEK293T cells expressing V990M hTRPM3. Type of experiment: cell-based. As to the method: (§1) HEK293T cells ([Graham et al., 1977]) were cultured as described previously ([Vriens et al., 2007]) and used up in passage number 14. HEK293T cells were tested for the lack of mycoplasma and transiently transfected with 2 µg of DNA using TransIT transfection reagent (Mirus) 36–48 hr before the measurements. In case of co-cultures a ratio of 1:1 between hTRPM3-YFP WT and mutants-YFP DNA was used.
(§2) All mutants were obtained by the standard PCR overlap extension method using hTRPM3 directly linked to YFP from pCAGGS/IRES-GFP vector ([Vriens et al., 2007]). Accuracy of all mutant sequences was verified by sequencing of the entire DNA constructs.
Standard whole-cell patch-clamp recordings were performed with an EPC-10 amplifier and the PatchMasterPro Software (HEKA Elektronik, Lambrecht, Germany). Current measurements were performed at a sampling rate of 20 kHz and currents were digitally filtered at 2.9 kHz. In all measurements, 70% of the series resistance was compensated. The standard internal solution contained (in mM): 100 CsAsp, 45 CsCl, 10 EGTA, 10 HEPES, 1 MgCl2 (pH 7.2 with CsOH) or 140 potassium gluconate, 5 EGTA, 1 MgCl2, 10 HEPES and 2 NaATP (pH 7.3 with CsOH) for the measurements of Gβγ mediated inhibition and the standard extracellular solution contained (in mM): 150 NaCl, 1 MgCl2, 10 HEPES (pH 7.4 with NaOH). The standard patch pipette resistance was between 2 MΩ and 4 MΩ when filled with pipette solution. In experiments allowing Ca^2+-dependent desensitization of TRPM3, Mg^2+ was replaced by Ca^2+ in the extracellular solution, and Cs^+ was replaced by Na^+ in the pipette solution. […] The chemical ligands were dissolved in bath solution from a stock diluted in DMSO.
For orientation: The patch-clamp technique gives a direct electrical read-out from membranes.

Experiment [2] concerns the target T1, TRPM3 V990M mutant. In words: Fura-2-based calcium imaging, HEK293T cells transfected with V990M hTRPM3. Type of experiment: cell-based. As to the method: as §1, §2
Changes in intracellular calcium concentration were monitored using ratiometric Fura-2-based fluorimetry. Cells were loaded with 2 µM Fura-2-acetoxymethyl ester (Alexis Biochemicals) for 30 min at 37°C. Fluorescence was measured during alternating illumination at 340 and 380 nm using Eclipse Ti (Nikon) fluorescence microscopy system, and absolute calcium concentration was calculated from the ratio of the fluorescence signals at these two wavelengths (R = F340/F380) as [Ca^2+]=Km × (R-Rmin)/(Rmax-R), where Km, Rmin and Rmax were estimated from in vitro calibration experiments with known calcium concentrations. The bath solution contained (in mM) 138 NaCl, 5.4 KCl, 2 CaCl2, 2 MgCl2, 10 glucose, and 10 HEPES, pH 7.4. […]

As to `Clc1ccccc1C(c1ccccc1)(c1ccccc1)n1ccnc1` [Clt, clotrimazole], the “Activation of whole-cell currents in the absence of PS” value on TRPM3 V990M mutant [1] (Clt 10 µM) is recorded as “induced robust currents”.
Turning to `CCC1(c2ccccc2)C(=O)NCNC1=O` [primidone], at TRPM3 V990M mutant [2] (primidone 100 µM, isosakuranetin 50 µM, did not fully return to WT level), the “Effect on basal [Ca2+]i” value is “reduced [Ca^2+]i”. Further, the “Block of PS-activated currents” value on TRPM3 V990M mutant [1] (primidone 25 µM, PS 40 µM, ±80 mV, cells co-expressing µ-opioid receptor) was ~ 50%.
Regarding pregnenolone sulfate [PS], at TRPM3 V990M mutant [2], the “PS concentration giving robust calcium responses (as low as)” value was 100 nM.
